Point of comparison: `Cc1cc(C(=O)Nc2ccc(Oc3ccc4cc(C(=O)N5CCN(Cc6ccc(OCC(F)(F)F)cc6)CC5)n(C)c4c3)nc2)ccc1Cl.Cl`, melting point 182.9 °C. Against it:
- Br.CCCOc1ccc(CN2CCN(C(=O)c3cc4ccc(Oc5ccc(N(C)C(=O)c6ccc(C(F)(F)F)cc6Cl)cn5)cc4n3C)CC2)cc1 [Example 450, 2-Chloro-N-methyl-N-(6-{1-methyl-2-[4-(4-propoxybenzyl)-piperazine-1-carbonyl]-1H-indol-6-yloxy}pyridin-3-yl)-4-tri-fluoromethylbenzamide hydrobromide] — higher, 238.6 to 240.1 °C
- Br.COc1ccc(CN2CCN(C(=O)c3cc4cc(Oc5ccc(NC(=O)c6ccc(C(F)(F)F)c(C)c6)cn5)ccc4n3C)CC2)cc1 [Example 19, N-(6-{2-[4-(4-Methoxybenzyl)piperazine-1-carbonyl]-1-methyl-1H-indol-5-yloxy}pyridin-3-yl)-3-methyl-4-trifluoromethylbenzamide hydrobromide] — higher, 188 to 191 °C
- Br.Cn1c(C(=O)N2CCN(Cc3ccc(C#N)cc3)CC2)cc2ccc(Oc3ccc(NC(=O)c4ccc(Cl)c(Cl)c4)cn3)cc21 [Example 263, 3,4-Dichloro-N-(6-{2-[4-(4-cyanobenzyl)piperazine-1-carbonyl]-1-methyl-1H-indol-6-yloxy}pyridin-3-yl)benzamide hydrobromide] — higher, 263.9 to 267.4 °C
- Br.CN(c1ccc(Oc2ccc3cc(C(=O)N4CCN(Cc5ccc(OCC(F)(F)F)cc5)CC4)n(C)c3c2)nc1)S(=O)(=O)c1ccccc1 [Example 30, N-Methyl-N-[6-(1-methyl-2-{4-[4-(2,2,2-trifluoroethoxy)benzyl]-piperazine-1-carbonyl}-1H-indol-6-yloxy)pyridin-3-yl]benzene-sulfonamide hydrobromide] — higher, 234.6 to 235.2 °C
- Br.CN(C(=O)c1ccc(C(F)(F)F)cc1)c1ccc(Oc2ccc3cc(C(=O)N4CCN(Cc5ccc(OC(F)F)cc5)CC4)n(C)c3c2)nc1 [Example 422, N-(6-{2-[4-(4-Difluoromethoxybenzyl)piperazine-1-carbonyl]-1-methyl-1H-indol-6-yloxy}pyridin-3-yl)-N-methyl-4-trifluoromethyl-benzamide hydrobromide] — higher, 229 to 230 °C
- Cn1c(C(=O)N2CCN(C3CCOCC3)CC2)cc2cc(Oc3ccc(NS(=O)(=O)c4ccc(C(F)(F)F)cc4)cn3)ccc21 [Example 332, N-(6-{1-Methyl-2-[4-(tetrahydropyran-4-yl)piperazine-1-carbonyl]-1H-indol-5-yloxy}pyridin-3-yl)-4-trifluoromethylbenzene-sulfonamide] — lower, 174 to 178 °C
- CC(C)Oc1ccc(CN2CCN(C(=O)c3cc4ccc(Oc5ncc(NC(=O)c6ccc(C(F)(F)F)cc6)cn5)cc4n3C)CC2)cc1.Cl — higher, 249.8 to 251 °C
- CCCCS(=O)(=O)N(C)c1ccc(Oc2ccc3cc(C(=O)N4CCN(Cc5ccc(OCC(F)(F)F)cc5)CC4)n(C)c3c2)nc1.Cl — higher, 253.6 to 254.4 °C
- Br.CC(C)Oc1ccc(CN2CCN(C(=O)c3cc4ccc(Oc5ccc(N(C)C(=O)c6ccc(C(F)(F)F)cc6Cl)cn5)cc4n3C)CC2)cc1 [Example 451, 2-Chloro-N-(6-{2-[4-(4-isopropoxybenzyl)piperazine-1-carbonyl]-1-methyl-1H-indol-6-yloxy}pyridin-3-yl)-N-methyl-4-trifluoromethyl-benzamide hydrobromide] — higher, 248.3 to 252.3 °C
- Br.Cn1c(C(=O)N2CCN(Cc3ccc4c(c3)OCO4)CC2)cc2cc(Oc3ccc(NC(=O)c4ccc(Cl)c(Cl)c4)cn3)ccc21 [Example 7, N-{6-[2-(4-Benzo[1,3]dioxol-5-ylmethylpiperazine-1-carbonyl)-1-methyl-1H-indol-5-yloxy]pyridin-3-yl}-3,4-dichlorobenzamide hydrobromide] — higher, 264 to 269 °C
- Br.CC(C)Oc1ccc(CN2CCN(C(=O)c3cc4cc(Oc5ccc(NC(=O)c6ccc(C(F)(F)F)cc6)cn5)ccc4n3C)CC2)cc1 [Example 460, N-(6-{2-[4-(4-Isopropoxybenzyl)piperazine-1-carbonyl]-1-methyl-1H-indol-5-yloxy}pyridin-3-yl)-4-trifluoromethylbenzamide hydrobromide] — higher, 236.8 to 243.8 °C
- Cc1ccc(S(=O)(=O)Nc2ccc(Oc3ccc4cc(C(=O)N5CCN(Cc6ccc(OCC(F)(F)F)cc6)CC5)n(C)c4c3)nc2)cc1 [Example 71, 4-Methyl-N-[6-(1-methyl-2-{4-[4-(2,2,2-trifluoroethoxy)benzyl]-piperazine-1-carbonyl}-1H-indol-6-yloxy)pyridin-3-yl]benzene-sulfonamide] — higher, 198.3 to 200.3 °C
- Cc1ccc(C(=O)N(C)c2ccc(Oc3ccc4cc(C(=O)N5CCN(Cc6ccc(OC(C)C)cc6)CC5)n(C)c4c3)nc2)cc1.Cl — higher, 230.1 to 232 °C
- Br.CCCOc1ccc(CN2CCN(C(=O)c3cc4ccc(Oc5ccc(NC(=O)c6ccc(C(F)(F)F)cc6)cn5)cc4n3C)CC2)cc1 [Example 475, N-(6-{1-Methyl-2-[4-(4-propoxybenzyl)piperazine-1-carbonyl]-1H-indol-6-yloxy}pyridin-3-yl)-4-trifluoromethylbenzamide hydrobromide] — higher, 254 to 255.7 °C
- Cc1ccc(S(=O)(=O)N(C)c2ccc(Oc3ccc4c(c3)cc(C(=O)N3CCN(Cc5ccc(OCC(F)(F)F)cc5)CC3)n4C)nc2)cc1.Cl — higher, 239.1 to 239.8 °C
- Cc1ccc(C(=O)N(C)c2ccc(Oc3ccc4cc(C(=O)N5CCN(Cc6ccc(OC(F)F)cc6)CC5)n(C)c4c3)nc2)cc1 [Example 276, N-(6-{2-[4-(4-Difluoromethoxybenzyl)piperazine-1-carbonyl]-1-methyl-1H-indol-6-yloxy}pyridin-3-yl)-4,N-dimethylbenzamide] — lower, 140.1 to 141.3 °C
- Br.Cn1c(C(=O)N2CCN(Cc3ccc(OC(F)F)cc3)CC2)cc2ccc(Oc3ccc(NC(=O)c4ccc(C(F)(F)F)cc4)cn3)cc21 [Example 477, N-(6-{2-[4-(4-Difluoromethoxybenzyl)piperazine-1-carbonyl]-1-methyl-1H-indol-6-yloxy}pyridin-3-yl)-4-trifluoromethylbenzamide hydrobromide] — higher, 265.6 to 268.3 °C
- COc1ccc(CN2CCN(C(=O)c3cc4cc(Oc5ccc(N(C)C(=O)c6ccc(Cl)c(Cl)c6)cn5)ccc4n3C)CC2)nc1.O=C(O)/C=C\C(=O)O [Example 389, 3,4-Dichloro-N-(6-{2-[4-(5-methoxypyridin-2-ylmethyl)piperazine-1-carbonyl]-1-methyl-1H-indol-5-yloxy}pyridin-3-yl)-N-methyl-benzamide maleate] — lower, 155 to 156 °C
- Br.CCOc1ccc(CN2CCN(C(=O)c3cc4cc(Oc5cc(C)c(N(C)C(=O)c6ccc(C(F)(F)F)cc6)cn5)ccc4n3C)CC2)cc1 [Example 365, N-(6-{2-[4-(4-Ethoxybenzyl)piperazine-1-carbonyl]-1-methyl-1H-indol-5-yloxy}-4-methylpyridin-3-yl)-N-methyl-4-trifluoromethyl-benzamide hydrobromide] — lower, 163 to 166 °C
- CN(c1ccc(Oc2ccc3cc(C(=O)N4CCN(Cc5ccc(OCC(F)(F)F)cc5)CC4)[nH]c3c2)nc1)S(=O)(=O)c1ccc(Cl)c(Cl)c1.Cl — higher, 225.2 to 229.3 °C
- Br.Br.Cn1c(C(=O)N2CCN(Cc3ccc(C#N)cn3)CC2)cc2cc(Oc3ccc(NC(=O)c4ccc(Cl)c(Cl)c4)cn3)ccc21 [Example 386, 3,4-Dichloro-N-(6-{2-[4-(5-cyanopyridin-2-ylmethyl)piperazine-1-carbonyl]-1-methyl-1H-indol-5-yloxy}pyridin-3-yl)benzamide dihydrobromide] — higher, 216 to 219 °C
- Br.CCN(C(=O)Nc1ccc(Cl)c(Cl)c1)c1ccc(Oc2ccc3c(c2)cc(C(=O)N2CCN(Cc4ccc5c(c4)OCO5)CC2)n3C)nc1 [Example 583, 1-{6-[2-(4-Benzo[1,3]dioxol-5-ylmethylpiperazine-1-carbonyl)-1-methyl-1H-indol-5-yloxy]pyridin-3-yl}-3-(3,4-dichlorophenyl)-1-ethylurea hydrobromide] — higher, 224 to 228 °C
- Cc1ccc(S(=O)(=O)N(C)c2ccc(Oc3ccc4cc(C(=O)N5CCN(Cc6ccc(OCC(F)F)cc6)CC5)n(C)c4c3)nc2)cc1 [Example 524, N-[6-(2-{4-[4-(2,2-Difluoroethoxy)benzyl]piperazine-1-carbonyl}-1-methyl-1H-indol-6-yloxy)pyridin-3-yl]-4,N-dimethylbenzene-sulfonamide] — lower, 121.9 to 122.5 °C
- CCCc1ccc(CN2CCN(C(=O)c3cc4cc(Oc5ccc(N(C)C(=O)c6ccc(C(F)(F)F)cc6)cn5)ccc4n3C)CC2)cc1.O=C(O)/C=C\C(=O)O [Example 411, N-Methyl-N-(6-{1-methyl-2-[4-(4-propylbenzyl)piperazine-1-carbonyl]-1H-indol-5-yloxy}pyridin-3-yl)-4-trifluoromethyl-benzamide maleate] — lower, 132 to 134 °C
- CC(C)CCOc1ccc(CN2CCN(C(=O)c3cc4ccc(Oc5ccc(N(C)S(=O)(=O)c6ccc(Cl)c(Cl)c6)cn5)cc4n3C)CC2)cc1 [Example 516, 3,4-Dichloro-N-methyl-N-[6-(1-methyl-2-{4-[4-(3-methylbutoxy)-benzyl]piperazine-1-carbonyl}-1H-indol-6-yloxy)pyridin-3-yl]-benzenesulfonamide] — lower, 145.9 to 147.1 °C

In the case of `Br.CN(C(=O)c1ccc(C(F)(F)F)cc1)c1ccc(Oc2ccc3c(c2)cc(C(=O)N2CCN(Cc4ccc(C(F)(F)F)cc4)CC2)n3C)nc1` [Example 553, N-Methyl-N-(6-{1-methyl-2-[4-(4-trifluoromethylbenzyl)piperazine-1-carbonyl]-1H-indol-5-yloxy}pyridin-3-yl)-4-trifluoromethyl-benzamide hydrobromide], the melting point is reported as 254 to 260 °C (dec.).
In the case of `Br.Cn1c(C(=O)N2CCN(Cc3ccc4c(c3)OCO4)CC2)cc2cc(Oc3ccc(NC(=O)c4ccc(-n5cccc5)cc4)cn3)ccc21` [Example 11, N-{6-[2-(4-Benzo[1,3]dioxol-5-ylmethylpiperazine-1-carbonyl)-1-methyl-1H-indol-5-yloxy]pyridin-3-yl}-4-pyrrol-1-ylbenzamide hydrobromide], the melting point is reported as 227 to 232 °C (dec.).

From patent US8551999B2, “Heterocyclic compound and pharmaceutical composition thereof” (Otsuka Pharmaceutical Co., Ltd., priority 2007, dated 2013)
